ChEMBL document CHEMBL1909046, “DrugMatrix in vitro pharmacology data”

Assays:
[1] = DRUGMATRIX: Atrial Natriuretic Factor (ANF) radioligand binding (ligand: [125I] ANF (rat)); format: cell membranes, Cavia porcellus, Dunkin-Hartley, Adrenal gland, Membrane; conditions: Not Active = under 50% inhibition at 10 µM
[2] = molecular target: T1, Calcitonin receptor (Homo sapiens, UniProt P30988); format: cell membranes, Membrane; conditions: t47d; further: in other assays of this panel Not Active means under 50% inhibition at 10 µM
T1 sequence (P30988 whole entry): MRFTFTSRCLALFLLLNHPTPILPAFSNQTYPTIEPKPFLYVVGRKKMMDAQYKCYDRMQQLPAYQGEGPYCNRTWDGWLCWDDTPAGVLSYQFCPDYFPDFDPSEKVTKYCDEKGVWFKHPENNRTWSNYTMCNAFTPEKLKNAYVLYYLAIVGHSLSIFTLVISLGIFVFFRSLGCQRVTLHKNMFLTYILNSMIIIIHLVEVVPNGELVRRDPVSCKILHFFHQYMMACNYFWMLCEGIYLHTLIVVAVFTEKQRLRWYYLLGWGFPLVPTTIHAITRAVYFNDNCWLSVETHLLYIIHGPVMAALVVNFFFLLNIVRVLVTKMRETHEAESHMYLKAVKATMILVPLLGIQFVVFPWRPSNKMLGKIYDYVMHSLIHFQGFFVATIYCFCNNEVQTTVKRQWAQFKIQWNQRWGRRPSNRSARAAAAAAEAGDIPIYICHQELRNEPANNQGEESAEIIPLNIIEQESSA

[3] = molecular target: 5-hydroxytryptamine receptor 4 (Cavia porcellus, UniProt O70528); format: cell membranes, Dunkin-Hartley, Striatum, Membrane; further: in other assays of this panel Not Active means under 50% inhibition at 10 µM
5-hydroxytryptamine receptor 4, sequence (O70528 whole entry): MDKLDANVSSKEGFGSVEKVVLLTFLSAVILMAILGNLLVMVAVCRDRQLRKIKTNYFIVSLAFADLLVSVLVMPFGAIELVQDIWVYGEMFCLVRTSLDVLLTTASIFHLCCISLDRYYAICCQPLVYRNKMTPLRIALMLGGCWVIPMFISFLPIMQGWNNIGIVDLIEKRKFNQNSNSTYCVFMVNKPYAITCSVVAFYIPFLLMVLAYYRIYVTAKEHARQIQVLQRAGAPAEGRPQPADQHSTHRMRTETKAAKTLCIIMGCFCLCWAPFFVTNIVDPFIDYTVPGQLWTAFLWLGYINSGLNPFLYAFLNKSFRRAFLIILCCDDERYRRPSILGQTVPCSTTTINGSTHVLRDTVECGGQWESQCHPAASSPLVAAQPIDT

[4] = molecular target: 5-hydroxytryptamine receptor 6 (Homo sapiens, UniProt P50406); format: cell membranes, HeLa, Membrane; conditions: hela; further: in other assays of this panel Not Active means under 50% inhibition at 10 µM
5-hydroxytryptamine receptor 6, sequence (P50406 whole entry): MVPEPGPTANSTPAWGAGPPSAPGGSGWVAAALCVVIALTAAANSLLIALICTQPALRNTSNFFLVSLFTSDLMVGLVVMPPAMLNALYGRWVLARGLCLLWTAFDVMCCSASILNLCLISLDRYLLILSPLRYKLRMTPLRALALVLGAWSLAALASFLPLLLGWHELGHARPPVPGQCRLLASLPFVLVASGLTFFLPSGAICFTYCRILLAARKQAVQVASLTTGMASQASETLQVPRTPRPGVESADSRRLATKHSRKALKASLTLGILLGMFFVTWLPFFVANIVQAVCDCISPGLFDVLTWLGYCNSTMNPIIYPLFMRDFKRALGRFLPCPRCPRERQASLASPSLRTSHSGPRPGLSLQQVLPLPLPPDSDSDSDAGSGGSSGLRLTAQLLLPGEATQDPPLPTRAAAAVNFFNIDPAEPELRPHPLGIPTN

[5] = molecular target: T2, Thromboxane-A synthase (Homo sapiens, UniProt P24557); assay: biochemical; format: tissue-based, Platelet; conditions: platelet;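 further: enzyme inhibition assay with PGH2 supplied as substrate; in other assays of this panel Not Active means under 50% inhibition at 10 µM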
T2 sequence (P24557 whole entry): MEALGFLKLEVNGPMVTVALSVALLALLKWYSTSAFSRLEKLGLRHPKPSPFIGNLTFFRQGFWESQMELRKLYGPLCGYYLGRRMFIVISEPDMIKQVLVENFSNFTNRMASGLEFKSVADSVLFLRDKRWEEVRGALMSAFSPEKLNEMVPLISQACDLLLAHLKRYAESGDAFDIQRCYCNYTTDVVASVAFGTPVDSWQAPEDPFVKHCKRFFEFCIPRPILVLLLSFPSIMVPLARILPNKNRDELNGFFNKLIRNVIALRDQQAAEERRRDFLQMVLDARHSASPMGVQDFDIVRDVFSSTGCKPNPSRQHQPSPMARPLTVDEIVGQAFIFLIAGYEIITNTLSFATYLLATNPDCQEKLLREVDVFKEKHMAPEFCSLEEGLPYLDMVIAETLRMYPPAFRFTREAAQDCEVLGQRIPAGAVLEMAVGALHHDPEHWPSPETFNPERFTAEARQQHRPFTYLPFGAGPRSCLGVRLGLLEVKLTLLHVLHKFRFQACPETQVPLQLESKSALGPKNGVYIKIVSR

[6] = molecular target: Vascular endothelial growth factor receptor 1 (Homo sapiens, UniProt P17948); format: cell-based; conditions: huvec; further: in other assays of this panel Not Active means under 50% inhibition at 10 µM
Vascular endothelial growth factor receptor 1, sequence (P17948 whole entry): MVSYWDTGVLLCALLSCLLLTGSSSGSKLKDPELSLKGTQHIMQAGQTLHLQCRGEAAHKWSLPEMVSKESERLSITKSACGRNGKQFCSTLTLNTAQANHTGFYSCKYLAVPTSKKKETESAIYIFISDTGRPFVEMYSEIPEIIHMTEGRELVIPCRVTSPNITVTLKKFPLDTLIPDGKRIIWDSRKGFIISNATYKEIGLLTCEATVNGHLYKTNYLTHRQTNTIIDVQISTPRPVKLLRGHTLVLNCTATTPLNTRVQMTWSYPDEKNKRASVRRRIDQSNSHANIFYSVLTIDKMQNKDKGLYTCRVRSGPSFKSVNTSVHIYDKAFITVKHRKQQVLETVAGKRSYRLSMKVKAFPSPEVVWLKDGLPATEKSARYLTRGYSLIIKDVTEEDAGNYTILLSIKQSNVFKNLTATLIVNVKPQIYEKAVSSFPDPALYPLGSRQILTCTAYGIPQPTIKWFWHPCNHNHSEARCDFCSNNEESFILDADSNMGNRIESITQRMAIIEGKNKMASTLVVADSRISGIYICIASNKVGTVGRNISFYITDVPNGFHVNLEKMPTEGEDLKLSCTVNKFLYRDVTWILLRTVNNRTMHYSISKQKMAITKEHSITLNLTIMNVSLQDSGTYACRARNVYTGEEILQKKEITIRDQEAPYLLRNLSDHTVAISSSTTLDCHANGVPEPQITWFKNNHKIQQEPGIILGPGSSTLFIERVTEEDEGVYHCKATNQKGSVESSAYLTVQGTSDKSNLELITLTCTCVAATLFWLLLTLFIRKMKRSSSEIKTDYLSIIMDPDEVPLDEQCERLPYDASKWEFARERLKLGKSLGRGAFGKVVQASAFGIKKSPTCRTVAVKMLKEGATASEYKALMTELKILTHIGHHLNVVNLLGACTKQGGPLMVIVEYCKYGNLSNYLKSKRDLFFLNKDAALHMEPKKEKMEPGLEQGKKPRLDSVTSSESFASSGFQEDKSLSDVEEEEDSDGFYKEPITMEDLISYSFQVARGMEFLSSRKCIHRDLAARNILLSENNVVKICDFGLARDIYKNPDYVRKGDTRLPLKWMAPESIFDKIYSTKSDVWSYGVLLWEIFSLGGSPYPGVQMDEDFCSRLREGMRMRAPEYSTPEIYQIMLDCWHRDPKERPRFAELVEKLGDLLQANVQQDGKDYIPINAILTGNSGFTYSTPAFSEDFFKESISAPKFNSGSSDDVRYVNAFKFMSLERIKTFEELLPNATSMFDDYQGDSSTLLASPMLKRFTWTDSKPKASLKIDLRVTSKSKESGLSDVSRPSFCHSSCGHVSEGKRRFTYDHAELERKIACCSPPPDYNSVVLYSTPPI

[7] = molecular target: T3, Vasoactive intestinal polypeptide receptor 1 (Homo sapiens, UniProt P32241); format: cell membranes, Membrane; conditions: ht-29; further: in other assays of this panel Not Active means under 50% inhibition at 10 µM
T3 sequence (P32241 whole entry): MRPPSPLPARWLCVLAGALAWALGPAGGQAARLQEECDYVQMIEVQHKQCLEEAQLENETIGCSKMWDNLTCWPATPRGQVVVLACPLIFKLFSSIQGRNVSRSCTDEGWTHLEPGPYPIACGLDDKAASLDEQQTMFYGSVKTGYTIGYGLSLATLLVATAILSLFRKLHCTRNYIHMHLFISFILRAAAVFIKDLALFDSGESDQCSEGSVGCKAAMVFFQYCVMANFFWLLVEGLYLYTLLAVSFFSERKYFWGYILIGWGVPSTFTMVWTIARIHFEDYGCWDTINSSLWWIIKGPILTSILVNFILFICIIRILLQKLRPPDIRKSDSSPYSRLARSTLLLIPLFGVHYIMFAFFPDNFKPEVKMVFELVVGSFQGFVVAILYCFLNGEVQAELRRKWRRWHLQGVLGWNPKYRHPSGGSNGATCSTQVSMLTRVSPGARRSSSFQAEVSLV

[8] = molecular target: T4, C-X-C chemokine receptor type 2 (Homo sapiens, UniProt P25025); format: cell membranes, Membrane; conditions: cho-k1; further: in other assays of this panel Not Active means under 50% inhibition at 10 µM
T4 sequence (P25025 whole entry): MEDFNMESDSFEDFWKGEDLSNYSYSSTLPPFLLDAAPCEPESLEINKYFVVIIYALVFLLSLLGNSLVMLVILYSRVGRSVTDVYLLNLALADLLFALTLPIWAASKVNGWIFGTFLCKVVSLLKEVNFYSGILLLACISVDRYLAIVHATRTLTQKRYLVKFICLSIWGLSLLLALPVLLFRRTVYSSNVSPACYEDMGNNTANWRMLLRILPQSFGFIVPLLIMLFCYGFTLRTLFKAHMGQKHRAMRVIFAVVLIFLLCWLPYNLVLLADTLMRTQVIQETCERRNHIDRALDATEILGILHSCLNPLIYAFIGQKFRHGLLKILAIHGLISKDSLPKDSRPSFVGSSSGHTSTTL

[9] = DRUGMATRIX: GABAA, Flunitrazepam, Central radioligand binding (ligand: [3H] Flunitrazepam); format: cell membranes, Rattus norvegicus, Wistar, Brain, Membrane; conditions: Not Active = under 50% inhibition at 10 µM
[10] = molecular target: T5, Leukotriene C4 synthase (Cavia porcellus, UniProt A6XA80); assay: biochemical; format: tissue-based, Lung
T5 sequence (A6XA80 whole entry): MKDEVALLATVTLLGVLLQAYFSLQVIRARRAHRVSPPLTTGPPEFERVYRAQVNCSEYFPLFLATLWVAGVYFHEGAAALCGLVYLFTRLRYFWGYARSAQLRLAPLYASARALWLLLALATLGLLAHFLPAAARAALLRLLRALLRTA

[11] = molecular target: Matrix metalloproteinase-9 (Homo sapiens, UniProt P14780); format: cell-based
Matrix metalloproteinase-9, sequence (P14780 whole entry): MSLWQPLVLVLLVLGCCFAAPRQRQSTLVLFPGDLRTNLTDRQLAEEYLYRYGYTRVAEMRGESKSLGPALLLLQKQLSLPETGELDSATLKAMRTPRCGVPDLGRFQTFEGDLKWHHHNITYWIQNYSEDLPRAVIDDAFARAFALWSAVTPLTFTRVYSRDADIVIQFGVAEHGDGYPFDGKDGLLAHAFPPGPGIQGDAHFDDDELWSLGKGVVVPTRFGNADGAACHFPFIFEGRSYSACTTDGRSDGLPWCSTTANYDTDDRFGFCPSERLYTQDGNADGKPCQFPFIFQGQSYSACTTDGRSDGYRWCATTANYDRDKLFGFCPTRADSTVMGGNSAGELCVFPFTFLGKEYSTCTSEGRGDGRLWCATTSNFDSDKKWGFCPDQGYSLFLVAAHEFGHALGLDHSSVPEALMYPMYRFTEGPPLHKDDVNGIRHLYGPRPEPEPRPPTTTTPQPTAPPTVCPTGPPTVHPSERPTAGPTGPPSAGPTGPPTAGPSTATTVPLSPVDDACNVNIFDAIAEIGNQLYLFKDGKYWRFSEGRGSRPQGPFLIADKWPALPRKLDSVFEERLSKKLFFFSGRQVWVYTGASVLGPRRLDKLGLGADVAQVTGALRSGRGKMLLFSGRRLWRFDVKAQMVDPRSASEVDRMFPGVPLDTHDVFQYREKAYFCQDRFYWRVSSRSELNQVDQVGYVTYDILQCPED

[12] = molecular target: T6, Adenosine receptor A1 (Homo sapiens, UniProt P30542); format: cell membranes, CHO, Membrane; conditions: cho
T6 sequence (P30542 whole entry): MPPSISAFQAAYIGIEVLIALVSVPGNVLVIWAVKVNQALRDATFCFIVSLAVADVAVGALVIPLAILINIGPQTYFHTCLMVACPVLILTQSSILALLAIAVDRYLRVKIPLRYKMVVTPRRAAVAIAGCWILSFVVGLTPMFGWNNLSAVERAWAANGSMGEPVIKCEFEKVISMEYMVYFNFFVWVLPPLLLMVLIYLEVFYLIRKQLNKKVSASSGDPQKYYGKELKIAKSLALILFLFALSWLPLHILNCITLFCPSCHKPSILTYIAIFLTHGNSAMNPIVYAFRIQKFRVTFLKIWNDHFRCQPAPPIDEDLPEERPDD

[13] = molecular target: Cytochrome P450 3A4 (Homo sapiens, UniProt P08684); conditions: bti-tn-5b1-4; further: in other assays of this panel Not Active means under 50% inhibition at 10 µM
Cytochrome P450 3A4, sequence (P08684 whole entry): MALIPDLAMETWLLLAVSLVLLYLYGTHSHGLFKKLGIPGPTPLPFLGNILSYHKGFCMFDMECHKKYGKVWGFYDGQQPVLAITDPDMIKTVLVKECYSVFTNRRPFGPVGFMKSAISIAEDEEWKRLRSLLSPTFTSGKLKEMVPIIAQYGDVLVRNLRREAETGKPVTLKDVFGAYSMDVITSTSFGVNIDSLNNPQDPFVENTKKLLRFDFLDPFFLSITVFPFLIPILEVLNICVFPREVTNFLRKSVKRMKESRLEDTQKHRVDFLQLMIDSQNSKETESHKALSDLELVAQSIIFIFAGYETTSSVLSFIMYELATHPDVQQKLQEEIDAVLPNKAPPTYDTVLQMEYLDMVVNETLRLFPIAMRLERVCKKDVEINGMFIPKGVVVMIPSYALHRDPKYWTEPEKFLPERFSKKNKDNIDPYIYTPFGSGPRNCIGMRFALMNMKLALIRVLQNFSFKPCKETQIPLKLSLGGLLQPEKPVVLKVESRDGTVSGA

O=c1[nH]cc(F)c(=O)[nH]1 [FLUOROURACIL]
Not Active: IC50 [1] | Ki [1] | IC50 [2] | IC50 [3] | IC50 [4] | IC50 [5] | IC50 [6] | IC50 [7] | IC50 [8] | IC50 [9] | Ki [9] | IC50 [10] | IC50 [11] | IC50 [12] | IC50 [13] | Ki [13]

CC(C)n1c(/C=C/C(O)CC(O)CC(=O)O)c(-c2ccc(F)cc2)c2ccccc21 (stereo not drawn) [FLUVASTATIN]
Not Active: IC50 [1] | Ki [1] | IC50 [2] | IC50 [3] | IC50 [4] | IC50 [5] | IC50 [6] | IC50 [7] | IC50 [8] | IC50 [9] | Ki [9] | IC50 [10] | IC50 [11] | IC50 [12] | IC50 [13] | Ki [13]

NCC1(CC(=O)O)CCCCC1 [GABAPENTIN]
Not Active: IC50 [1] | Ki [1] | IC50 [2] | IC50 [3] | IC50 [4] | IC50 [5] | IC50 [6] | IC50 [7] | IC50 [8] | IC50 [9] | Ki [9] | IC50 [10] | IC50 [11] | IC50 [12] | IC50 [13] | Ki [13]

CC[N+](CC)(CC)CCOc1cccc(OCC[N+](CC)(CC)CC)c1OCC[N+](CC)(CC)CC.[I-].[I-].[I-] [GALLAMINE TRIETHIODIDE]
Not Active: IC50 [1] | Ki [1] | IC50 [2] | IC50 [3] | IC50 [4] | IC50 [5] | IC50 [6] | IC50 [7] | IC50 [8] | IC50 [9] | Ki [9] | IC50 [10] | IC50 [11] | IC50 [12] | IC50 [13] | Ki [13]

Nc1nc2c(ncn2COC(CO)CO)c(=O)[nH]1 [GANCICLOVIR]
Not Active: IC50 [1] | Ki [1] | IC50 [2] | IC50 [3] | IC50 [4] | IC50 [5] | IC50 [6] | IC50 [7] | IC50 [8] | IC50 [9] | Ki [9] | IC50 [10] | IC50 [11] | IC50 [12] | IC50 [13] | Ki [13]

COc1c(N2CCNC(C)C2)c(F)cc2c(=O)c(C(=O)O)cn(C3CC3)c12 (stereo not drawn) [GATIFLOXACIN]
Not Active: IC50 [1] | Ki [1] | IC50 [2] | IC50 [3] | IC50 [4] | IC50 [5] | IC50 [6] | IC50 [7] | IC50 [8] | IC50 [9] | Ki [9] | IC50 [10] | IC50 [11] | IC50 [12] | IC50 [13] | Ki [13]

CC1(C)[C@@H](O[C@H]2O[C@H](C(=O)O)[C@@H](O)[C@H](O)[C@H]2O[C@@H]2O[C@H](C(=O)O)[C@@H](O)[C@H](O)[C@H]2O)CC[C@]2(C)[C@H]3C(=O)C=C4[C@@H]5C[C@@](C)(C(=O)O)CC[C@]5(C)CC[C@@]4(C)[C@]3(C)CC[C@@H]12 [GLYCYRRHIZIN]
Not Active: IC50 [1] | Ki [1] | IC50 [2] | IC50 [3] | IC50 [4] | IC50 [5] | IC50 [6] | IC50 [7] | IC50 [8] | IC50 [9] | Ki [9] | IC50 [10] | IC50 [11] | IC50 [12] | IC50 [13] | Ki [13]

COC1=CC(=O)C[C@@H](C)[C@]12Oc1c(Cl)c(OC)cc(OC)c1C2=O [GRISEOFULVIN]
Not Active: IC50 [1] | Ki [1] | IC50 [2] | IC50 [3] | IC50 [4] | IC50 [5] | IC50 [6] | IC50 [7] | IC50 [8] | IC50 [9] | Ki [9] | IC50 [10] | IC50 [11] | IC50 [12] | IC50 [13] | Ki [13]
